# Measurements reported in patent US20110319397A1 (priority 2009, published 2011).
# Target: α7-subtype of nicotinic receptors (Mus musculus, UniProt P49582)
# Assay type: in vivo, mice
# Details: ex vivo, mouse hippocampal membranes; dose inhibiting specific binding of 3H-α-bungarotoxin (1 nM) by 50%
# Chain of α7-subtype of nicotinic receptors (P49582 23-502): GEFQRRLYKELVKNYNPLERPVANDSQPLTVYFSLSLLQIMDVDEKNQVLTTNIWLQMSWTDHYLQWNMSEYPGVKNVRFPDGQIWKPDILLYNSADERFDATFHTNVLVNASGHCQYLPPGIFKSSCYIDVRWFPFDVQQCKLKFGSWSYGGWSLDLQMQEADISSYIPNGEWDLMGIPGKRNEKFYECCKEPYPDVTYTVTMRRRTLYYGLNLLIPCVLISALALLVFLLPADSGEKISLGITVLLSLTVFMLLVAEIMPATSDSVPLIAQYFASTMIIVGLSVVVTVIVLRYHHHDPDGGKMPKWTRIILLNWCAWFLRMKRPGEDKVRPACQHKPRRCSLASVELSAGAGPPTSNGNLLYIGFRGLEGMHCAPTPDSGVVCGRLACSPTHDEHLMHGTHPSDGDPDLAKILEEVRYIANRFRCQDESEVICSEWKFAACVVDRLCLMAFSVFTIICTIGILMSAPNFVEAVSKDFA
compound,measurement,value
"[O-][N+]12CCC(CC1)N(c1nnc(-c3ccoc3)o1)CC2 [Compound 1, 4-(5-Furan-3-yl-[1,3,4]oxadiazol-2-yl)-1,4-diaza-bicyclo[3.2.2]nonane 1-oxide]","EC50 (mg/kg), Inhibition of 3H-α-Bungarotoxine Binding",40 mg/kg
